System: colonic bacteria

SMILES: CC1=C(CC(=O)O)c2cc(F)ccc2C1=Cc1ccc(S(C)(=O)=O)cc1 [Example 10, α-(1-ρ-Methylsulfonylbenzylidene)-2-Methyl-5-Fluoro-3-Indenyl-Acetic Acid]
- conversion of the sulfonyl compound in human fecal material: converted to an unknown derivative
